In brackets after ≈: the same amount, converted by molar mass.
What was measured:
[1] = Solid form stability on storage; type: physicochemical
Protocol: To evaluate the solid form stability, Forms A and C were stored under 25° C./60% RH (open), 40° C./75% RH (open), and 60° C. for up to 4 weeks. Samples were analyzed by XRPD, TGA, DSC, and HPLC purity.

[2] = Dynamic vapor sorption (hygroscopicity); type: physicochemical; conditions: DVS
Protocol: DVS analysis was carried out using a Surface Measurement System DVS Intrinsic analyzer. The instrument was calibrated with standard weights. Approximately 15-20 mg of sample was loaded into a pan for analysis. The sample was analyzed at 25° C. in 10% relative humidity (RH) steps from 0 to 95% RH (adsorption cycle) and from 95 to 0% RH (desorption cycle). The movement from one step to the next occurred either after satisfying the equilibrium criterion of 0.002% weight change (dm/dt) or, if the equilibrium criterion was not met, after ten hours.

[3] = Plasma PK in rats, nanosuspension; type: in vivo; conditions: nanosuspension in deionized water, single oral 25 mg/kg, Wistar Han rats
Protocol: Wistar Han rats were administered a nanosuspension of Form A or Form C as a single oral administration at 25 mg/kg. The nanosuspensions were prepared by suspending nano-milled Form A or Form C in deionized water (2.5 mg/mL) to obtain opaque homogenous suspensions. Blood samples were collected at 0.25, 0.5, 1, 2, 4, 8, 24, 48, and 72 hours post-dose. Concentrations of Compound I in plasma samples were determined by LC/MS/MS.

[4] = Biorelevant media solubility of Forms A and C; type: physicochemical; conditions: for Solubility / Final XRPD: 37° C.
Protocol: Biorelevant media solubility of Forms A and C were studied in water, SGF, FaSSIF, and FeSSIF at 37° C. 10-20 mg of Form A or C was weighed into 2-3 mL glass vials and media was added to achieve a solids loading of ˜5 mg/mL. Each slurry was magnetically agitated at 750-1000 rpm at 37° C., filtered via centrifugation, and the supernatant was analyzed by HPLC to determine solubility. In all cases, there was no polymorphic form change observed by XRPD analysis of the filtered solids.

[5] = Plasma PK in monkeys, powder in capsule; type: in vivo; conditions: micronized (d90 5), single oral 15 mg/kg, cynomolgus monkeys
Protocol: Non-naïve male cynomolgus monkeys were used in this study with at least a 7-day washout period prior to dosing Animals were administered micronized Form A, unmicronized Form A, or micronized Form C powder in capsule by single oral administration at 15 mg/kg. The capsules were prepared according to the animals' body weights on dosing day. Blood samples were collected at 0.25, 0.5, 1, 2, 4, 8, 24, 48, and 72 hours post-dose.

[6] = Plasma PK in monkeys, nanosuspension; type: in vivo; conditions: nanosuspension in deionized water, single oral 25 mg/kg, cynomolgus monkeys
Protocol: Non-naïve male cynomolgus monkeys were used in this study with at least a 7-day washout period prior to dosing Animals were administered a nanosuspension of Form C as a single oral administration at 25 mg/kg. The nanosuspension was prepared by suspending nano-milled Form C in deionized water (5 mg/mL) to obtain an opaque homogenous suspension. Blood samples were collected at 0.25, 0.5, 1, 2, 4, 8, 24, 48, and 72 hours post-dose. Concentrations of Compound I in plasma samples were determined by LC/MS/MS.
A separate study was performed for a nanosuspension of Form A.

O=C(COc1ccc(Cl)cc1)NC12CC(c3nnc([C@H]4C[C@@H](OC(F)(F)F)C4)o3)(C1)C2 (single isomer, unassigned) [Form C, 2-(4-chlorophenoxy)-N-[3-[5-[cis-3-(trifluoromethoxy)cyclobutyl]-1,3,4-oxadiazol-2-yl]-1-bicyclo[1.1.1]pentanyl]acetamide]
DSC endotherm ([1]; 25° C./60% RH (open), 2 week): 133.7 °C
HPLC purity ([1]; 25° C./60% RH (open), 2 week): 99.7%
TGA loss (%, to 150° C.) ([1]; 25° C./60% RH (open), 2 week): 0.4%
XRPD ([1]; 25° C./60% RH (open), 2 week): Form C
DSC endotherm ([1]; 25° C./60% RH (open), 4 week): 133.3 °C
HPLC purity ([1]; 25° C./60% RH (open), 4 week): 99.7%
TGA loss (%, to 150° C.) ([1]; 25° C./60% RH (open), 4 week): 0.3%
XRPD ([1]; 25° C./60% RH (open), 4 week): Form C
solid form stability (form change, weight gain, purity changes) ([1]; 25° C./60% RH (open), 40° C./75% RH (open), 60° C., up to 4 weeks): No form change, weight gain, or purity changes
DSC endotherm ([1]; 40° C./75% RH (open), 2 week): 133.6 °C
HPLC purity ([1]; 40° C./75% RH (open), 2 week): 99.7%
TGA loss (%, to 150° C.) ([1]; 40° C./75% RH (open), 2 week): 0.2%
XRPD ([1]; 40° C./75% RH (open), 2 week): Form C
DSC endotherm ([1]; 40° C./75% RH (open), 4 week): 133.3 °C
HPLC purity ([1]; 40° C./75% RH (open), 4 week): 99.8%
TGA loss (%, to 150° C.) ([1]; 40° C./75% RH (open), 4 week): 0.2%
XRPD ([1]; 40° C./75% RH (open), 4 week): Form C
DSC endotherm ([1]; 60° C. (closed), 2 week): 133.6 °C
HPLC purity ([1]; 60° C. (closed), 2 week): 99.8%
TGA loss (%, to 150° C.) ([1]; 60° C. (closed), 2 week): 0.3%
XRPD ([1]; 60° C. (closed), 2 week): Form C
DSC endotherm ([1]; 60° C. (closed), 4 week): 133.0 °C
HPLC purity ([1]; 60° C. (closed), 4 week): 99.8%
TGA loss (%, to 150° C.) ([1]; 60° C. (closed), 4 week): 0.2%
XRPD ([1]; 60° C. (closed), 4 week): Form C
DSC endotherm ([1]; Initial): 133.1 °C
HPLC purity ([1]; Initial): 99.8%
TGA loss (%, to 150° C.) ([1]; Initial): 0.1%
XRPD ([1]; Initial): Form C
Hygroscopicity [2]: Non-hygroscopic
weight change / form change after exposure to humidity [2]: no weight change and no polymorphic change
Tmax [3]: 8 h
AUC0-48 h ([3]; 25 mg/kg): 1658 ± 211 μM-hr
Cmax ([3]; 25 mg/kg): 101 ± 10 µM
Solubility ([4]; FaSSIF): 9.65 µg/mL (≈ 21.1 µM)
Solubility ([4]; FeSSIF): 16.14 µg/mL (≈ 35.3 µM)
Solubility ([4]; SGF): 0.56 µg/mL (≈ 1.22 µM)
Solubility ([4]; Water): 1.02 µg/mL (≈ 2.23 µM)
Final XRPD ([4]; filtered solids after slurry in FaSSIF): Form C
Final XRPD ([4]; filtered solids after slurry in FeSSIF): Form C
Final XRPD ([4]; filtered solids after slurry in SGF): Form C
Final XRPD ([4]; filtered solids after slurry in Water): Form C
aqueous solubility ([4]; listed as Compound I Form C): about 1.02 micrograms/mL
AUC0-24 h [5]: 117 ± 39 μM-hr
Cmax [5]: 7.6 ± 3.4 µM
Tmax [5]: 4 h
AUC0-24 h [6]: 367 ± 99 μM-hr
Cmax [6]: 21.7 ± 4.2 µM
Tmax [6]: 8 h

Reference: patent US12662458B2, “Solid forms of a compound” (Denali Therapeutics Inc., priority 2020, dated 2026)
